Measured values: patent US20030170239A1, “Immunotherapeutic method to prevent islet cell rejection” (priority 2000, published 2003)

How the values were obtained:
[1] = system: pig islet xenograft in Lewis rats; experiment: Immunohistochemical analysis of pig islet xenograft, non-diabetic recipients (Example 1); type: in vivo; design: key to Insulin staining of graft: 0 = absent; + = single cell only; ++ = cell groups; +++ = large cell groups; key to OX33 (B cells) leukocytic infiltration (IHC) / ED1 (CD68) leukocytic infiltration (IHC) / CD3 (Tcells) leukocytic infiltration (IHC) / CD8 leukocytic infiltration (IHC) / CD4 leukocytic infiltration (IHC): 0 = absent; + = single or few; ++ = moderate; +++ = plenty; conditions: non-diabetic Lewis rats, 2,000 IE pig islets, day +12 post transplant
Excerpt: Pancreata were removed from donor outbred female pigs, >2 years old, by standard surgical technique. Following removal, pancreata were perfused with Liberase HI (Roche Diagnostics Corp., Indianapolis, Ind., U.S.A., Cat. No. 1666720) for intraductal distension. Islet cells were dissociated from the perfused pancreata by the automated method. Cleaved islets were separated from non-islet tissue by continuous OptiPrep gradients (Accurate Chemical and Scientific Corp., Westbury, N.Y., U.S.A., Cat. No. AN-1030061) on a COBE 2991 cell separator (Gambro BCT International, Lakewood, Colo., U.S.A.). The resulting free floating, purified islet cells were cultured in M199 medium supplemented with 20% donor pig serum for 48 hours at 37° C.
Transplantation was conducted by standard surgical technique. Briefly, the recipient animals, non-diabetic inbred male Lewis rats weighing 250-270 grams, were anesthetized with Telazol 0.20 mg/kg BW, administered i.m. In addition, the analgesic buprinorphine was administered s.c. to the recipient animals. Transplantation was conducted by making a left flank incision on the recipient, into which 2,000 donor islet equivalents (IE) were injected under the left kidney capsule via PE-50 tubing according to standard procedure.
(§1) In this study, recipients were administered the following immunosuppressive drugs: anti-CD40L mAb AH.F5 (Biogen, Inc., Cambridge, Mass., U.S.A.; 12 mg/kg BW, administered i.p. on day—1, 0, 1, 7, and then twice weekly); non-depleting anti-CD4 mAb RIB 5/2 (20 mg/kg BW, administered i.p. on day—1, 0, 1, 2, 3, 5, and then twice weekly); Ha4/8, a non-specific control to anti-CD40L (12 mg/kg BW, administered i.p. on day—1, 0, 1, 7, and then twice weekly); and FK-506 (Prograf, Fujisawa, Inc.; diluted to 1.25 mg/ml in sterile water, 0.3 mg/kg BW, administered i.m. daily from day—2, i.e., 2 days prior to transplant).
Animals were sacrificed by intracardiac exsanguination after ether anesthesia on day +12 post transplant for histological analysis of the graft. Kidneys bearing xenografts were harvested, snap frozen in liquid nitrogen and stored at −70° C.
The following primary Abs were used for immunohistochemical analysis: W3/24 (anti-CD4; available from Pharmingen) W3/13 (anti-CD3; available from Pharmingen); OX-8 (anti-CD8; available from Pharmingen); NK1.2.3 (anti-NK cell; available from Pharmingen); OX-33 (anti-B cell; available from Serotec); ED1 (anti-CD68/macrophages; available from Serotec); and insulin from Dako. The immunohistochemical analysis was visualized by an avidin-biotin-peroxidase complex method and AEC as chromogen. In the case of a positive immunoreaction, a red-brown precipitate developed.

Lewis rats = experiment: Toxicity / body weight of recipients (Example 1); type: in vivo; conditions: when FK506 (0.3 mg/kg BW) was added, 12 days follow up
Method: as §1
Control animals increased on average 15% in weight. All antibody treated animals (alone or in combination, but without FK506) increased weight parallel to untreated controls. […] This toxicity is significant, considering that the follow up was only 12 days and that the dose of FK506 (0.3 mg/kg BW) is equal or lower than in studies reporting no toxicity.

Q: What does the source list for `C=CC[C@@H]1/C=C(\C)C[C@H](C)C[C@H](OC)[C@H]2O[C@@](O)(C(=O)C(=O)N3CCCC[C@H]3C(=O)O[C@H](/C(C)=C/[C@@H]3CC[C@@H](O)[C@H](OC)C3)[C@H](C)[C@@H](O)CC1=O)[C@H](C)C[C@@H]2OC` [FK, FK-506]?
A: CD3 (Tcells) leukocytic infiltration (IHC) [1]: ++; CD4 leukocytic infiltration (IHC) [1]: ++; CD8 leukocytic infiltration (IHC) [1]: +; ED1 (CD68) leukocytic infiltration (IHC) [1]: +; Insulin staining of graft [1]: ++; OX33 (B cells) leukocytic infiltration (IHC) [1]: +; body weight lost (Lewis rats): around 5%
